In data set [1] the test system is MCF-7. The note with it: for anti-proliferative activity category: MCF-7, in words; for IC50: human.
For data set [2], the system named is MCF-7. The data set can be described thus: cells. The note with it: Homo sapiens, MCF7, 24 h, read-out: In vitro cytotoxicity IC50 (mean ± SD) MCF-7.
The target in the next data set is EGFR TK enzyme (Homo sapiens, UniProt P00533). The data set can be described thus: biochemical. The settings on record: EGFR IC50 (mean ± SD), ATP 1.65 μM, 30 min, room temperature.

Values joined by “and” are separate entries in the source; they are usually repeats but may differ in a detail not shown here. Identical values can stand only once. Like-named read-outs stand apart in the source and are kept apart here.

EGFR TK enzyme, sequence (P00533 25-1210): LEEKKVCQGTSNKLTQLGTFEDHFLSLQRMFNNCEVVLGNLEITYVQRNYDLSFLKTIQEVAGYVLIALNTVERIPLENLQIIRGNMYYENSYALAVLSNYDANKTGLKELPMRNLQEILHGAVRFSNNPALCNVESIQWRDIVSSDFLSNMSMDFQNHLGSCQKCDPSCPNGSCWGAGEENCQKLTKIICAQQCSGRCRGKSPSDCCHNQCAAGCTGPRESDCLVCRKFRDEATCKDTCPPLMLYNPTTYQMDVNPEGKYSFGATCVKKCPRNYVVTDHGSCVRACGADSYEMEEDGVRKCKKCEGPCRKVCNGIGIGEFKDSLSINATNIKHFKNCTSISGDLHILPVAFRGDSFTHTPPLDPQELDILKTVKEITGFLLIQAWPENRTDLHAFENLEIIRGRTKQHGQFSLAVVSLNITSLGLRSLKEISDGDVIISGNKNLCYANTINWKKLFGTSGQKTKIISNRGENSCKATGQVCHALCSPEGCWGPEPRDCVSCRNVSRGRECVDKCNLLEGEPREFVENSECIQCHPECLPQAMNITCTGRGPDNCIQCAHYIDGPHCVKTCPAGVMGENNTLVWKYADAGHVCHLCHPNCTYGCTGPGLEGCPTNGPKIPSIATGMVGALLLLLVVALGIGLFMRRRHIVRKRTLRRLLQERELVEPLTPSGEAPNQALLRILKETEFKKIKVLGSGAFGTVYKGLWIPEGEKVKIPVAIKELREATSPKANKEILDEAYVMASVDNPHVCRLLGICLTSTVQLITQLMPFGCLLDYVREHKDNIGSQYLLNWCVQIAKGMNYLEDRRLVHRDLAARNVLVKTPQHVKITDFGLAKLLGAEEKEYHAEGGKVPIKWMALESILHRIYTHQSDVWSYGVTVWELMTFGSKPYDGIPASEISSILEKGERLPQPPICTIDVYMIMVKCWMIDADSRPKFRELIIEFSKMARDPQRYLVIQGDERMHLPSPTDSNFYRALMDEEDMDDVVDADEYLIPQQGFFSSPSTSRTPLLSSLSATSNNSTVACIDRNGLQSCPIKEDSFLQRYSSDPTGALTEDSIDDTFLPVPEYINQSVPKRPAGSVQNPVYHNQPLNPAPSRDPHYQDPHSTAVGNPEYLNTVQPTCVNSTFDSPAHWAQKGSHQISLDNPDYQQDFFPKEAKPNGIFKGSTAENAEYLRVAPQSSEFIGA

Consider `Nc1cc(N2C(=O)c3ccccc3C2=O)nc(SCC(=O)NN=Cc2cccc([N+](=O)[O-])c2)n1` [6a, 2-((4-Amino-6-(1,3-dioxoisoindolin-2-yl)pyrimidin-2-yl)thio)-N′-(3-nitrobenzylidene)acetohydrazide], for which the anti-proliferative activity category result in the data set on MCF-7 [1] is on record as “lowest anti-proliferative activity”. Moreover, in the data set on MCF-7 [2], the IC50 – broadly, the concentration that inhibits the measured activity by half – is 62 ± 3.3 µM.

`Nc1cc(N2C(=O)c3ccccc3C2=O)nc(SCC(=O)NN=Cc2ccc([N+](=O)[O-])cc2)n1` [6b, 2-((4-Amino-6-(1,3-dioxoisoindolin-2-yl)pyrimidin-2-yl)thio)-N′-(4-nitrobenzylidene)acetohydrazide]: in the data set with MCF-7 [1], the anti-proliferative activity category result was “moderate activity”. The IC50 in the data set on MCF-7 [2] is 48.4 ± 2.8 µM.

For `Nc1cc(N2C(=O)c3ccccc3C2=O)nc(SCC(=O)NN=Cc2ccc(Cl)cc2)n1` [6c, 2-((4-Amino-6-(1,3-dioxoisoindolin-2-yl)pyrimidin-2-yl)thio)-N′-(4-chlorobenzylidene)acetohydrazide], the IC50 was 0.9 µM and 0.88 µM against EGFR TK enzyme; 31.8 ± 2 µM in the data set on MCF-7 [1]; 37.7 ± 3.6 µM in the data set on MCF-7 [2]. For the same molecule, in the data set on MCF-7 [1], the anti-proliferative activity category result is recorded as “moderate activity”.

Turning to `Nc1cc(N2C(=O)c3ccccc3C2=O)nc(SCC(=O)NN=Cc2ccc(O)cc2)n1` [6e, 2-((4-Amino-6-(1,3-dioxoisoindolin-2-yl)pyrimidin-2-yl)thio)-N′-(4-hydroxybenzylidene)acetohydrazide], the anti-proliferative activity category entry with MCF-7 [1] is “lowest anti-proliferative activity”. Besides, the IC50 in the data set on MCF-7 [2] came out at 75.4 ± 3.7 µM.

Regarding `COc1ccc(C=NNC(=O)CSc2nc(N)cc(N3C(=O)c4ccccc4C3=O)n2)cc1OC` [6g, 2-((4-Amino-6-(1,3-dioxoisoindolin-2-yl)pyrimidin-2-yl)thio)-N′-(3,4-dimethoxy-benzylidene)acetohydrazide], the anti-proliferative activity category entry in the data set with MCF-7 [1] was “moderate activity”. Besides, in the data set on MCF-7 [2], the concentration for half-maximal inhibition (IC50) stood at 19.6 ± 1.5 µM.

Consider `CNC(c1ccccc1)c1c(N)[nH]c(=O)[nH]c1=O` (stereo not shown) [10a, 6-Amino-5-((methylamino)(phenyl)methyl)pyrimidine-2,4(1H,3H)-dione], for which the values for the IC50 against EGFR TK enzyme and in the data set with MCF-7 [2] were 4.6 ± 0.11 µM and 8.6 ± 0.7 µM, respectively.

With `CCNC(c1ccccc1)c1c(N)[nH]c(=O)[nH]c1=O` (stereo not shown) [10b, 6-Amino-5-((ethylamino)(phenyl)methyl)pyrimidine-2,4(1H,3H)-dione], the IC50 worked out at 0.65 ± 0.02 µM on EGFR TK enzyme, 37.7 ± 2.4 µM in the data set with MCF-7 [1] and 31.8 ± 2 µM in the data set with MCF-7 [2]. Further, in the data set on MCF-7 [1], the anti-proliferative activity category result was “moderate activity”.

`CCCCNC(c1ccccc1)c1c(N)[nH]c(=O)[nH]c1=O` (stereo not shown) [10c, 6-Amino-5-((butylamino)(phenyl)methyl)pyrimidine-2,4(1H,3H)-dione]: the values for the IC50 at EGFR TK enzyme and with MCF-7 [2] were 0.99 ± 0.03 µM and 7.6 ± 0.5 µM, respectively. Also, the anti-proliferative activity category entry in the data set with MCF-7 [1] is listed as “high anti-proliferative activity”.

Turning to `CN(C)C(c1ccccc1)c1c(N)[nH]c(=O)[nH]c1=O` (stereo not shown) [10d, 6-Amino-5-((dimethylamino)(phenyl)methyl)pyrimidine-2,4(1H,3H)-dione], in the data set on MCF-7 [1], the anti-proliferative activity category entry was “high anti-proliferative activity” and inhibition was half-maximal at 14.2 ± 1.2 µM (IC50). Also, the IC50 in the data set on MCF-7 [2] was 8.6 ± 0.7 µM.

With `O=C1CCC(N2C(=O)c3ccccc3C2=O)C(=O)N1` (stereo not shown) [Thalidomide, reference compound], the half-maximal inhibitory concentration (IC50) in the data set on MCF-7 [2] is 13.4 ± 0.5 µM.

(Values after publication PMC12498222 (RSC Advances, 2025).)
